Read-outs that look alike come from different tables or passages of the source.
Tests used:
[1] = target: T1, recombinant human PAI-1 (Homo sapiens, UniProt P05121); assay: Test Example 2: Human PAI-1 Inhibitory Activity (pH 7.4 HEPES buffer, 10 minutes incubation with two-chain tPA); type: biochemical; parameters: purchased Molecular Innovations, Inc; conditions: read-out: Inhibition Rate of PAI-1 Activity (%)
Description: 0.1 M HEPES, 0.1 M NaCl. 1 mM EDTA. 0.1 % Polyethylene glycol 8,000 (Hampton Research Corporation),
2 mM Dimethyldecylphoshine oxide [Apo-10] (Fluka Corporation)

[2] = target: T2, recombinant rat PAI-1 (Rattus norvegicus, UniProt P20961); assay: biochemical; conditions: read-out: Inhibition Rate of PAI-1 Activity (%)
T2 sequence (P20961 24-402): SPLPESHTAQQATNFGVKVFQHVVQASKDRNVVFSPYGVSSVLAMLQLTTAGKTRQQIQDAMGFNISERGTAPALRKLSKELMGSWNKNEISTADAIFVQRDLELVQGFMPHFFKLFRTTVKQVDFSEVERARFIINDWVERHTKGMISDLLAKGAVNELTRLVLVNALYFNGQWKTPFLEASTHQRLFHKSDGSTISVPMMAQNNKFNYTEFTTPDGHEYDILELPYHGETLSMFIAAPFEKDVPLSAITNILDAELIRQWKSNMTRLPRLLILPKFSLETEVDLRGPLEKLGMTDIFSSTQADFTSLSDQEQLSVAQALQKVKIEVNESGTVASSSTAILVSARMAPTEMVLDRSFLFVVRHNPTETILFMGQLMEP

[3] = target: T1, recombinant human PAI-1; assay: biochemical
Description: To this solution, 6 µl of 80 nM recombinant human PAI-1 (Molecular Innovations, Inc.) solution prepared with Tris buffer was added, and the plate was incubated for 5 minutes at room temperature. Furthermore, 30 µl of 800 IU/ml two-chain tPA (Activity Standard; American diagnostica, inc.) prepared with Tris buffer was added, and the mixed solution was incubated for 15 minutes at room temperature. Then, 30 µl of 400 µM fluorogenic substrate (Pyr-Gly-Arg-MCA; Peptide Institute, Inc.) for tPA prepared with Tris buffer was added and reacted for 30 minutes at room temperature.
50 mM Tris, 150 mM NaCl, 10 µg/ml BSA, 0.01 % Tween80 (SIGMA-ALDRICH Corporation)

[4] = read-out: Inhibition Rate of PAI-1 Activity (%), Compound Concentration 5µM
[5] = read-out: Inhibition Rate of PAI-1 Activity (%), Compound Concentration 10µM
[6] = read-out: Inhibition Rate of PAI-1 Activity (%), Compound Concentration 25µM
[7] = read-out: Inhibition Rate of PAI-1 Activity (%)

T1 sequence (P05121 24-402): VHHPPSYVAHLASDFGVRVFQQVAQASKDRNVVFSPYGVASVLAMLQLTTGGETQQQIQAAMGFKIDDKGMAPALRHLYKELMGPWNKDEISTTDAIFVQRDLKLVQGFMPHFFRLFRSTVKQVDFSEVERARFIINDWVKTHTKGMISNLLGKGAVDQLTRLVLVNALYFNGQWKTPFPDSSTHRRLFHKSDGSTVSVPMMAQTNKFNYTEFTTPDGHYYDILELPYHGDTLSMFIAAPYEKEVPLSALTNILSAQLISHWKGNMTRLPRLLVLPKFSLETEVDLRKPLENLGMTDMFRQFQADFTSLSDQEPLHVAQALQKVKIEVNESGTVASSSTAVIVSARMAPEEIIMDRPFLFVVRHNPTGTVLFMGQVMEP

| inhibition at 5 µM [3, 7] [%] | inhibition at 10 µM [3, 7] [%] | inhibition at 25 µM [3, 7] [%] | Compound | inhibition at 0.1 µM [1] [%] | inhibition at 0.3 µM [1] [%] | inhibition at 1 µM [1] [%] | inhibition at 3 µM [1] [%] | inhibition at 0.3 µM [2] [%] | inhibition at 1 µM [2] [%] | inhibition at 3 µM [2] [%] | inhibition at 10 µM [2] [%] | inhibition at 5 µM [3, 4] [%] | inhibition at 10 µM [3, 5] [%] | inhibition at 25 µM [3, 6] [%] | inhibition at 5 µM ([3]; read-out: Inhibition Rate of PAI Activity (%), Compound Concentration 5µM) [%] | inhibition at 10 µM ([3]; read-out: Inhibition Rate of PAI Activity (%), Compound Concentration 10µM) [%] |
| --- | --- | --- | --- | --- | --- | --- | --- | --- | --- | --- | --- | --- | --- | --- | --- | --- |
|  |  |  | CC(C)(C)c1ccc(CN(C(=O)C(=O)O)c2ccc(-c3ccc(OC(F)(F)F)cc3)cc2Cl)cc1 [Compound 147] | 0 | 7 | 35 | 99 | 0 | 14 | 70 | 87 | 38 | 80 | 92 |  |  |
| 90 | 92 |  | Cc1cc(N(C)C)c(-c2ccc(OC(F)(F)F)cc2)cc1N(Cc1ccc(C(C)(C)C)cc1)C(=O)C(=O)O [Compound 215] | 7 | 18 | 54 | 95 | 2 | 16 | 84 | 97 |  |  |  |  |  |
|  |  |  | CC(C)(C)c1ccc(CN(C(=O)C(=O)O)c2cc(C(F)(F)F)ccc2-c2ccc(OC(F)(F)F)cc2)cc1 [Compound 168] | 0 | 0 | 33 | 99 | 0 | 12 | 81 | 97 | 63 | 94 |  |  |  |
| 24 | 54 | 98 | CC(C)(C)c1ccc(COc2cc(-c3ccc(OC(F)(F)F)cc3)ccc2CCC(=O)O)cc1 [Compound 76] | 10 | 12 | 37 | 99 | 0 | 6 | 56 | 86 |  |  |  |  |  |
|  |  |  | CCCOc1ccc(-c2ccc(OC(F)(F)F)cc2)cc1N(Cc1ccc(C(C)(C)C)cc1)C(=O)C(=O)O [Compound 188] | 0 | 0 | 33 | 97 | 0 | 14 | 84 | > 99 | 73 | 91 | 91 |  |  |
|  |  |  | CC(C)(C)c1ccc(COc2c(OCC(=O)O)cccc2-c2ccc(OC(F)(F)F)cc2)cc1 [Compound 117] | 2 | 7 | 46 | > 99 | 0 | 7 | 63 | 94 | 63 | 91 | 96 |  |  |
| 93 | 84 |  | CCN(CC)c1ccc(N(Cc2ccc(C(C)(C)C)cc2)C(=O)C(=O)O)cc1-c1ccc(OC(F)(F)F)cc1 [Compound 213] | 0 | 10 | 48 | 98 | 8 | 26 | 90 | 78 |  |  |  |  |  |
|  |  |  | CC(C)(C)c1ccc(CN(C(=O)C(=O)O)c2cccc(Oc3ccc(OC(F)(F)F)cc3)c2)cc1 [Compound 172] | 4 | 8 | 18 | 76 | 0 | 6 | 49 | 97 | 58 | 89 | 94 |  |  |
|  |  |  | CCCCOc1ccc(-c2ccc(OC(F)(F)F)cc2)cc1N(CCCCc1ccccc1)C(=O)C(=O)O [Compound 231] | 0 | 6 | 34 | 98 | 3 | 18 | 89 | > 99 | 81 | 97 | 94 |  |  |
|  |  |  | CC(C)(C)c1ccc(CN(C(=O)C(=O)O)c2ccc(Cl)cc2-c2ccc(OC(F)(F)F)cc2)cc1 [Compound 192] | 0 | 1 | 35 | > 99 | 0 | 8 | 76 | 96 | 80 | 95 | 94 |  |  |
| 56 | 81 | 91 | CC(C)(Oc1cc(-c2ccc(OC(F)(F)F)cc2)ccc1OCCCCc1ccccc1)C(=O)O [Compound 116] | 0 | 0 | 15 | 89 | 2 | 12 | 43 | 98 |  |  |  |  |  |
| 63 | 90 |  | CCCCOc1ccc(N(CCCCc2ccccc2)C(=O)C(=O)O)cc1-c1ccc(OC(F)(F)F)cc1 [Compound 227] | 0 | 7 | 41 | 98 | 0 | 14 | 77 | 95 |  |  |  |  |  |
|  |  |  | CC(C)(C)c1ccc(COc2ccc(-c3ccc(OC(F)(F)F)cc3)cc2CC(=O)O)cc1 [Compound 9] | 0 | 6 | 25 | 98 | 0 | 15 | 71 | 96 |  |  |  | 90 | 99 |
|  |  |  | CC(C)c1ccc(Oc2ccc(CCC(=O)O)c(Oc3ccc(C(C)C)cc3)c2)cc1 [Compound 73] | 0 | 6 | 27 | 98 | 0 | 13 | 75 | 98 | 30 | 66 | > 99 |  |  |
|  |  |  | CC(C)(C)c1ccc(Oc2cccc(-c3ccc(OC(F)(F)F)cc3)c2CCC(=O)O)cc1 [Compound 94] | 0 | 3 | 24 | 96 | 0 | 15 | 45 | 91 | 56 | 90 | 97 |  |  |
| 87 | 96 |  | CC(C)Oc1ccc(N(Cc2ccc(C(C)(C)C)cc2)C(=O)C(=O)O)cc1-c1ccc(OC(F)(F)F)cc1 [Compound 211] | 9 | 16 | 43 | 96 | 4 | 17 | 78 | 87 |  |  |  |  |  |

Reference: EP2272817A1, “PAI-1 INHIBITOR” (Institute of Medicinal Molecular Design, Inc., priority 2008, dated 2009)
